The numbers were not newly measured in US7041008B2, “Golf ball with sulfur cured inner component” (priority 1993, dated 2006), which cites them from elsewhere.

As for “2,2′-bis(t-butylperoxy)-di-iso-propylbenzene”, the “Acute oral LD50” value is listed as >23,000 mg/kg.
Turning to `CC1CC(C)(C)CC(OOC(C)(C)C)(OOC(C)(C)C)C1` (stereo not drawn) [1,1-bis(t-butylperoxy)-3,3,5-trimethyl cyclohexane], the “Acute oral LD50” value is >13,000 mg/kg.
Turning to `CC(C)(C)OOC(C)(C)CCC(C)(C)OOC(C)(C)C` [2,5-dimethyl-2,5-di(t-butylperoxy) hexane], the “Acute oral LD50” value was >32,000 mg/kg.
For the compound `C1CN(SSN2CCOCC2)CCO1` [4,4″-dithiodimorpholine], the “Acute oral LD50” value is on record as 5,600 mg/kg.
With `O=C1CCCCCN1SSN1CCCCCC1=O` [N,N′-caprolactum disulfide], the “Acute oral LD50” value is on record as 3,620 mg/kg.
In the case of `O=C(OOC(=O)c1ccccc1)c1ccccc1` [benzoyl peroxide], the “Acute oral LD50” value was >5,000 mg/kg.
As for `CC(C)(OOC(C)(C)c1ccccc1)c1ccccc1` [dicumyl peroxide], the “Acute oral LD50” value is 4,100 mg/kg.
In the case of `CCCCOC(=O)CCC(C)(OOC(C)(C)C)OOC(C)(C)C` [n-butyl 4,4-bis(t-butyl-peroxy) valerate], the “Acute oral LD50” value is listed as 5,000 mg/kg.
As for `CC(C)(C)OOC(=O)c1ccccc1` [t-butyl perbenzoate], the “Acute oral LD50” value is given as >3,600 mg/kg.
